Measured values: publication PMC12813973, “Consequences of Peptide Macrocyclization Revealed by Virus-Inspired β‑Hairpin Mimetics” (ACS Chemical Biology, 2025)
Like-named read-outs stand apart in the source and are kept apart here. Where a SMILES comes first, the peptide text is derived from it. [ ]: non-standard residue; d: D form. βAla = NCCC(=O)O

Legend:
[1] = molecular target: Peptide 2 (head-to-tail monocyclic 018 11-30) none (wild-type side chains; added beta-Ala-beta-Ala linker); assay: isothermal titration calorimetry (ITC); conditions: pH 8.0; 300 mM NaCl; 50 mM Tris pH 8.0 (TBST)
[2] = molecular target: Peptide 4 (bicyclic: head-to-tail plus o-xylyl C15/C26 cross-link) residue 15 to Cys (native residue not given); K26C; both S-alkylated by the o-xylyl bridge; assay: isothermal titration calorimetry (ITC); conditions: pH 8.0; 300 mM NaCl; 50 mM Tris pH 8.0 (TBST)
STAT1 [3] = molecular target: T1, STAT1 (Homo sapiens, UniProt P42224); assay: Grating-coupled interferometry (GCI) waveRAPID kinetics, immobilised full-length STAT1; format: binding; conditions: for Kd: 20 mM HEPES pH 7.5, 300 mM NaCl, 0.01% Tween-20, 1:1 kinetic model, average of 2–4 technical replicates ± SD, SD; for kon at 0.5 µM / kd: analyte 0.5 µM; for kon at 0.5 µM: read-out: ka
T1 construct: full-length STAT1 (Uniprot #P42224-1) was expressed in E. coli; His tag (pEXP-NHis vector) (N); made in house; host or cells: E. coli T7 Express
T1 sequence (P42224 1-750): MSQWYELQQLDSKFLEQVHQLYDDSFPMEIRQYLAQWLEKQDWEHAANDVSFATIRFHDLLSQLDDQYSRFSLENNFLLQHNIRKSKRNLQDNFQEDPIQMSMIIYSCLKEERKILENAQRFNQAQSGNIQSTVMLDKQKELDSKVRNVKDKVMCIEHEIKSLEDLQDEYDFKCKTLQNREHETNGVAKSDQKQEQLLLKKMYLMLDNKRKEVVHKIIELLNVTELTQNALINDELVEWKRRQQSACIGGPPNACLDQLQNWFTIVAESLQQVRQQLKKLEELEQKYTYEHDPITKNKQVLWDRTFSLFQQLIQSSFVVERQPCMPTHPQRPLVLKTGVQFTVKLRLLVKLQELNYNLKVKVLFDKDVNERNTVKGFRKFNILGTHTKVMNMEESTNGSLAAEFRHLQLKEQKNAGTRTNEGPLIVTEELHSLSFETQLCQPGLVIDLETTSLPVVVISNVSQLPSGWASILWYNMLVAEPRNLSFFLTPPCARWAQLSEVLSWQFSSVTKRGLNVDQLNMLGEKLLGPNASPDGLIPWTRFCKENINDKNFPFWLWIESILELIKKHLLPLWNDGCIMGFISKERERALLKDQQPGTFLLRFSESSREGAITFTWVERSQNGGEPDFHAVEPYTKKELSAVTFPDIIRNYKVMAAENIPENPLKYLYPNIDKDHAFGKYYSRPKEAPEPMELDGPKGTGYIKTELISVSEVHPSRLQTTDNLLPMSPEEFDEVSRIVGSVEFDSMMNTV
Text: Understanding the molecular determinants of kinetic rate constants of binding (k a, k d) can aid the design of pharmacological probes with longer target engagement, which is beneficial for drug efficacy and decreased toxicity. , We characterized the binding kinetics of 018-derived macrocycles by using grating-coupled interferometry (GCI). We used waveRAPID, a regeneration-free kinetic binding assay that applies sequential analyte pulses of increasing duration onto a GCI biosensor surface with an immobilized target (Figures A, and S3,S4, Table S2).
(§1) Grating coupled interferometry (GCI)
(§2) GCI experiments were performed on a Creoptix WaveDELTA instrument (Malvern Panalytical). Full-length STAT1 or STAT3 were immobilised on a 4PCH chip (Malvern Panalytical #4PCH-03) to a density 2000-8000 pg/mm2 using EDC/NHS activation followed by amine coupling. Briefly, proteins (500 nM) were applied onto an activated chip in 10 mM MES pH 6.5, 20 mM NaCl, after which the chip surface was passivated with 1M ethanolamine, pH 8.0.
(§3) The kinetic measurements were perfor med using 20 mM HEPES pH 7.5, 300 mM NaCl, 0.01% Tween-20, 0.0005% DMSO as running buffer. Peptides were tested at 0.5 or 10 μM concentration using the waveRAPID kinetics experiment with the tight binder or intermediate binder mode, respectively.[4] Sensorgrams were fitted in the waveControl software (Malven Panalytical) using the 1:1 kinetic model. […]

STAT3 = molecular target: T2, STAT3 (Homo sapiens, UniProt P40763); assay: biochemical; format: binding; conditions: for Kd: full-length STAT3 on 4PCH chip, average of technical replicates ± SD (Fig 3E), SD, read-out: STAT3 KD (GCI waveRAPID); for kon: read-out: ka; for KD: analyte 10 µM (1, 3, 5) or 0.5 µM (4, 6), n.b. – no binding observed
T2 construct: STAT3: the gene encoding full-length STAT3 was codon optimised for expression in; MBP (pEXP-MBP vector) (cleaved yes); His tag (IMAC capture, removed with the fusion by TEV and reverse IMAC) (cleaved yes); made in house; host or cells: E. coli T7 Express
Method: In such PPIs, the bulk of the binding energy contribution typically stems from backbone interactions, whereas binding specificity is fine-tuned by side-chain contacts. […] We evaluated the binding kinetics of peptides to full-length STAT3 using GCI.
as §1, §2, §3
GCI sensorgrams depicting RAPID kinetics measurements and fitted kinetic models for peptide binding to full-length STAT3 immobilised on a polycarboxylate hydrogel chip (4PCH). Peptides were applied at 0.5 or 10 μM concentration using the medium or tight binders pulse sequence. The peptides that show negligible Rmax values at 10 μM analyte concentration were classified as non-binding.
(1 picture or pasted object on this page, not shown here)

[4] = Solubility as required for ITC titration; format: physicochemical; conditions: ITC needs approximately 100-200 μM peptide in reaction buffer with 2% DMSO
STAT1 [5] = molecular target: T1, STAT1; assay: Isothermal titration calorimetry (ITC) of peptide binding to STAT1; conditions: average of 2–3 technical replicates, read-out: KD (ITC, summary Fig 2B)
Method: To determine affinities and thermodynamic profiles of binding, we performed isothermal titration calorimetry (ITC) experiments for peptides 1, 2, 3, 4, 7, and 8 (Figures A,B and S1,S2, Table S1). […] The experiments were repeated in two different buffer systems, TBST (50 mM Tris pH 8.0, 300 mM NaCl, 0.01% Tween-20) and PBST ([…], 150 mM NaCl, 0.01% Tween-20), to account for possible buffer protonation enthalpy artifacts. […]
Isothermal titration calorimetry (ITC)
ITC experiments were performed using a PEAQ ITC instrument (Malvern Panalytical) in either TBST (50 mM Tris pH 8.0, 300 mM NaCl, 0.5 mM TCEP, 0.01% Tween -20) or PBST (10 mM sodium phosphate pH 7.4, 150 mM NaCl, 0.01% Tween -20) as reaction buffers. STAT1 protein was buffer -exchanged into reaction buffer supplemented with 2% DMSO on a NAP -5 deslating column (Cytiv a #17085301) and its concentration was adjusted to 10 or 20 μM.
Peptides were diluted in reaction buffer from DMSO stocks to a matching 2% DMSO concentration. Peptide concentrations were adjusted to approximately 100-200 μM. ITC experiments were performed with STAT1 in the cell and peptides in the syringe at 25°C, with 750 RPM stirring, DP = 4 μcal/sec. 18 injections of 2 μl were performed over a 50 min titration.
Thermogram integra tion and isotherm fitting were performed using the PEAQ ITC analysis software (Malvern Panalytical ). Isotherms were fitted using a 1:1 binding model. Due to challenges in determining peptide concentrations with high accuracy , protein concentrations and stoichiometry (N=1.0) were kept constant during isotherm fitting, whereas peptide concentrations were allowed to vary. Fixing a single reactant concentration during fitting is acceptable given the sufficiently high C -values and isotherm curvature observed in the […]
Offset subtraction was implemented to remove injection heats.

STAT1 [6] = molecular target: T1, STAT1; assay: Fluorescence polarization competition assay with fluorescein-labelled pIFNGR1 docking site peptide probe; format: binding; conditions: 10 nM fluorescein pIFNGR1 probe, STAT1 1.5 μM, 20 mM Tris pH 8.0, 300 mM NaCl, 0.1% Tween-20, 0.5 mM TCEP, 2.5% DMSO, room temperature; four parameter logistic fit; read-out: IC50 (FP competition, pIFNGR1 probe displacement)
[7] = replicate 1 (first listed run, Table S2)
[8] = replicate 2 (second listed run, Table S2)

T2 sequence (P40763 whole entry, species assumed, the tested form may be a part): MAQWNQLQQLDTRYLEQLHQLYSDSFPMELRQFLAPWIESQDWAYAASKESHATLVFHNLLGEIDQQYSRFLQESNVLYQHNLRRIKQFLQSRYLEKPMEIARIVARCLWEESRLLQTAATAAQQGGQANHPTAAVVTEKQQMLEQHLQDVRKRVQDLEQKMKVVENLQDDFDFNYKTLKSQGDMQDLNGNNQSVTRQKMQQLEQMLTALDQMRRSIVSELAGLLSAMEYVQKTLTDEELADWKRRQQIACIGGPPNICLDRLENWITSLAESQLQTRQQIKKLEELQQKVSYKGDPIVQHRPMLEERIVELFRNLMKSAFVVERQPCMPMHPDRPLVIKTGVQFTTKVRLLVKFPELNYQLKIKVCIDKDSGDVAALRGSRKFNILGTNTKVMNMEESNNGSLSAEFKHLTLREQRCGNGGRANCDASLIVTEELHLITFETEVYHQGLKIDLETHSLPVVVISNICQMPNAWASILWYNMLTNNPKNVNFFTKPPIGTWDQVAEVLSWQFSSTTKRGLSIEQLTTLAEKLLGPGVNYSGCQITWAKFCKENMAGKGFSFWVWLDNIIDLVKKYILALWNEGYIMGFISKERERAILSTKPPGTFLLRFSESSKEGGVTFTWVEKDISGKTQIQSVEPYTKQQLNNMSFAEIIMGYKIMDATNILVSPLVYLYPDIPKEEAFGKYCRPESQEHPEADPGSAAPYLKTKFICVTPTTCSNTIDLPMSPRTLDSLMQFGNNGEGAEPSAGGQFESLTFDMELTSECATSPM

Molecule	KD [1] [nM]	KD [2] [nM]	Kd (STAT1 [3]) [nM]	kon at 0.5 µM (STAT1 [3]; [7]) [M⁻¹ s⁻¹]	kon at 0.5 µM (STAT1 [3]; [8]) [M⁻¹ s⁻¹]	kon at 0.5 µM (STAT1 [3]; replicate 3 (third listed run, Table S2)) [M⁻¹ s⁻¹]	kon at 0.5 µM (STAT1 [3]; replicate 4 (fourth listed run, Table S2)) [M⁻¹ s⁻¹]	ka (STAT3) [M⁻¹ s⁻¹]	Kd (STAT3) [nM]	kon (STAT3) [M⁻¹ s⁻¹]	solubility (for ITC titration) [4]	Kd (STAT1 [5]; PBST pH 7.4 (NaPi, 150 mM NaCl, 0.01% Tween-20)) [nM]	Kd (STAT1 [5]; TBST pH 8.0) [nM]	IC50 (STAT1 [6]) [nM]	kd (STAT1 [3]; [7]) [s⁻¹]	kd (STAT1 [3]; [8]) [s⁻¹]	KD (STAT3; [7])	KD (STAT3; [8])	STAT3 binding (GCI), in words (STAT3; full-length STAT3, negligible Rmax at 10 μM classified as non-binding)
STAT1 (signal transducer and activator of transcription 1), unphosphorylated not stated for the ITC sample	330 ± 20	24 ± 15	–	–	–	–	–	–	–	–	–	–	–	–	–	–	–	–	–
CC[C@H](C)[C@@H]1NC(=O)[C@H](Cc2ccccc2)NC(=O)[C@H](C(C)C)NC(=O)[C@@H](NC(=O)[C@H](Cc2c[nH]c3ccccc23)NC(=O)[C@H](CCSC)NC(C)=O)CSCc2ccccc2CSC[C@@H](C(=O)N[C@@H](Cc2ccc(O)cc2)C(=O)N[C@H](C(N)=O)[C@@H](C)O)NC(=O)[C@H](CCCCN)NC(=O)[C@H](CO)NC(=O)CNC(=O)[C@H](CCCCN)NC(=O)[C@H](CC(N)=O)NC(=O)[C@H](CO)NC(=O)CNC(=O)[C@H](CC(=O)O)NC(=O)[C@H](Cc2c[nH]cn2)NC(=O)CNC(=O)[C@H](Cc2c[nH]cn2)NC1=O [Peptide 6]	–	–	1.3 ± 1.1	377000	304000	186000	384000	280000	196 ± 12	252000	insufficient solubility	–	–	–	–	–	–	–	–
CC[C@H](C)[C@@H]1NC(=O)[C@H](CS)NC(=O)[C@H](C(C)C)NC(=O)[C@H](CO)NC(=O)[C@H](Cc2c[nH]c3ccccc23)NC(=O)[C@H](CCSC)NC(=O)CCNC(=O)CCNC(=O)[C@H]([C@@H](C)O)NC(=O)[C@H](Cc2ccc(O)cc2)NC(=O)[C@H]([C@@H](C)O)NC(=O)[C@H](CCCCN)NC(=O)[C@H](CS)NC(=O)CNC(=O)[C@H](CCCCN)NC(=O)[C@H](CC(N)=O)NC(=O)[C@H](CO)NC(=O)CNC(=O)[C@H](CC(=O)O)NC(=O)[C@H](Cc2c[nH]cn2)NC(=O)CNC(=O)[C@H](Cc2c[nH]cn2)NC1=O [Peptide 3] (cyclo(CIHGHDGSNKGCKTYT[βAla][βAla]MWSV))	–	–	7.5 ± 0.5	261000	276000	–	–	83900	9300 ± 453	81000	–	55	145	1300	–	–	–	–	–
CC[C@H](C)[C@H](NC(=O)[C@H](Cc1ccccc1)NC(=O)[C@@H](NC(=O)[C@H](CS)NC(=O)[C@H](Cc1c[nH]c2ccccc12)NC(=O)[C@H](CCSC)NC(C)=O)C(C)C)C(=O)N[C@@H](Cc1c[nH]cn1)C(=O)NCC(=O)N[C@@H](Cc1c[nH]cn1)C(=O)N[C@@H](CC(=O)O)C(=O)NCC(=O)N[C@@H](CO)C(=O)N[C@@H](CC(N)=O)C(=O)N[C@@H](CCCCN)C(=O)NCC(=O)N[C@@H](CO)C(=O)N[C@@H](CCCCN)C(=O)N[C@@H](CS)C(=O)N[C@@H](Cc1ccc(O)cc1)C(=O)N[C@H](C(N)=O)[C@@H](C)O [Peptide 5]	–	–	31.9 ± 4.3	351000	457000	–	–	–	–	–	insufficient solubility	–	–	–	0.0123	0.0132	n.b.	n.b.	not detected
